Source: the supplement of paper PMC10307832

Columns and labels:
Test in all cases: relative viability (nuclei count vs DMSO), 5 days (fraction); higher = more cells survive
[1] = compound: C1=CC(=CC=C1C2=CC(=C(S2)NC(=O)N)C(=O)N)F [TPCA-1] + Nc1ncn([C@H]2C[C@H](O)[C@@H](CO)O2)c(=O)n1 [Decitabine] (partner 2 µM)
How it was run: (§1)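 A single step with final 0.05% Triton X-100, 1% formaldehyde and 1 ug/ml Hoechst fixed the cells and stained nuclei 5 days after treatment. Lung cancer cell lines in 1536-well plates had been treated by pin tool the day after seeding with one drug alone or a fixed anchor-drug dose plus five library-drug doses (not always all listed) in √10 steps, and nuclei were counted on 4× images. Relative viability is the ratio of nuclei in treated wells to nuclei in vehicle wells, taken as the median of duplicate plates.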

[2] = compound: C[C@]12O[C@H](C[C@]1(O)CO)n1c3ccccc3c3c4c(c5c6ccccc6n2c5c31)CNC4=O [Lestaurtinib] + O=C(CCCCCCC(=O)Nc1ccccc1)NO [Vorinostat] (partner 1 µM)
How it was run: as §1

[3] = compound: C[C@]12O[C@H](C[C@]1(O)CO)n1c3ccccc3c3c4c(c5c6ccccc6n2c5c31)CNC4=O [Lestaurtinib] + CC(=O)c1c(C)c2cnc(Nc3ccc(N4CCNCC4)cn3)nc2n(C2CCCC2)c1=O [Palbociclib] (partner 0.5 µM)
How it was run: as §1

[4] = compound: C1=CC(=CC=C1C2=CC(=C(S2)NC(=O)N)C(=O)N)F [TPCA-1] + Cc1nc(NC(=O)N2CCC[C@H]2C(N)=O)sc1-c1ccnc(C(C)(C)C(F)(F)F)c1 [Alpelisib] (partner 2 µM)
How it was run: as §1

Cell Line | relative viability ([1]; first compound 0.04 µM) | relative viability ([1]; first compound 0.1265 µM) | relative viability ([1]; first compound 0.4 µM) | relative viability ([1]; first compound 1.265 µM) | relative viability ([1]; first compound 4 µM) | relative viability ([2]; first compound 0.005 µM) | relative viability ([2]; first compound 0.01581 µM) | relative viability ([2]; first compound 0.05 µM) | relative viability ([2]; first compound 0.1581 µM) | relative viability ([2]; first compound 0.5 µM) | relative viability ([3]; first compound 0.005 µM) | relative viability ([3]; first compound 0.01581 µM) | relative viability ([3]; first compound 0.05 µM) | relative viability ([3]; first compound 0.1581 µM) | relative viability ([3]; first compound 0.5 µM) | relative viability ([4]; first compound 0.04 µM) | relative viability ([4]; first compound 0.1265 µM) | relative viability ([4]; first compound 0.4 µM) | relative viability ([4]; first compound 1.265 µM) | relative viability ([4]; first compound 4 µM)
HCC-15 | 0.731 | 0.546 | 0.708 | 0.625 | 0.374 | 0.88 | 0.983 | 0.701 | 0.446 | 0.205 | 0.751 | 0.779 | 0.68 | 0.687 | 0.187 | 0.862 | 0.705 | 0.915 | 0.863 | 0.779
NCI-H1563 | – | – | – | – | – | – | – | – | – | – | – | – | – | – | – | 0.976 | 0.932 | 0.897 | 0.993 | 0.911
COR-L 105 | 0.711 | 0.622 | 0.735 | 0.612 | 0.537 | 0.949 | 0.676 | 0.678 | 0.445 | 0.402 | 0.434 | 0.425 | 0.376 | 0.419 | 0.348 | 1.07 | 0.892 | 0.987 | 0.919 | 0.898
NCI-H520 | 0.522 | 0.35 | 0.573 | 0.516 | 0.331 | 0.68 | 0.675 | 0.632 | 0.371 | 0.211 | 0.262 | 0.234 | 0.201 | 0.171 | 0.158 | 0.869 | 0.783 | 0.844 | 0.892 | 0.788
